Read-outs that look alike come from different tables or passages of the source.
Key:
NSD2 [1-1365] = NSD2 [1-1365] (Homo sapiens (Human), UniProt O96028); assay: LC-MS/MS-based NSD2 enzymatic assay (SAH production); type: biochemical; settings: read-out: NSD2 IC50
In short: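 Full-length NSD2 [1-1365] (8 nM final) with 1 μM SAM and 400 nM mouse-liver nucleosome in Tris pH 8.0 buffer; inhibitor preincubated 20 min with enzyme/SAM before nucleosome addition. Reaction 90 min at room temperature, TFA-quenched; SAH quantified by LC-MS/MS against d4-SAH internal standard and SAH standard curve.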

[1] = test system: cellular H3K36me2 level in thyroid carcinoma cell line CGTH-W-1 (NSD2 E1099K); assay: H3K36me2 cellular ELISA assay in CGTH-W-1 line; type: cell-based; settings: Homo sapiens, CGTH-W-1, 72 h, read-out: H3K36me2 ELISA in CGTH-W-1
In short: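 CGTH-W-1 thyroid carcinoma cells (NSD2 E1099K gain-of-function) exposed to compound for 72 hours. Histone-bound plates probed for H3K36me2 and total H3 by chemiluminescent ELISA. Viability checked on a parallel plate with CellTiter-Glo.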

[2] = test system: cellular H3K36me2 level in multiple myeloma cell line KMS11 (t(4;14)+); assay: H3K36me2 cellular ELISA assay in KMS11-Par line; type: cell-based; settings: Homo sapiens, KMS-11, ELISA, read-out: H3K36me2 ELISA in KMS11-Par
In short: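 KMS11 cells were seeded a day ahead at 1,250 per well in Opti-MEM with B-27/N2, then treated with compound for 72 h. Histones were acid-extracted with 0.4M HCl, and H3K36me2 and total H3 were read by chemiluminescent ELISA. Viability was checked with CellTiter-Glo on a parallel plate in maintenance media.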

[3] = NSD2 biochemical activity, class symbols
[4] = KMS11-Par line (t(4;14)+), 72 hours treatment

NSD2 [1-1365], sequence (O96028 whole entry): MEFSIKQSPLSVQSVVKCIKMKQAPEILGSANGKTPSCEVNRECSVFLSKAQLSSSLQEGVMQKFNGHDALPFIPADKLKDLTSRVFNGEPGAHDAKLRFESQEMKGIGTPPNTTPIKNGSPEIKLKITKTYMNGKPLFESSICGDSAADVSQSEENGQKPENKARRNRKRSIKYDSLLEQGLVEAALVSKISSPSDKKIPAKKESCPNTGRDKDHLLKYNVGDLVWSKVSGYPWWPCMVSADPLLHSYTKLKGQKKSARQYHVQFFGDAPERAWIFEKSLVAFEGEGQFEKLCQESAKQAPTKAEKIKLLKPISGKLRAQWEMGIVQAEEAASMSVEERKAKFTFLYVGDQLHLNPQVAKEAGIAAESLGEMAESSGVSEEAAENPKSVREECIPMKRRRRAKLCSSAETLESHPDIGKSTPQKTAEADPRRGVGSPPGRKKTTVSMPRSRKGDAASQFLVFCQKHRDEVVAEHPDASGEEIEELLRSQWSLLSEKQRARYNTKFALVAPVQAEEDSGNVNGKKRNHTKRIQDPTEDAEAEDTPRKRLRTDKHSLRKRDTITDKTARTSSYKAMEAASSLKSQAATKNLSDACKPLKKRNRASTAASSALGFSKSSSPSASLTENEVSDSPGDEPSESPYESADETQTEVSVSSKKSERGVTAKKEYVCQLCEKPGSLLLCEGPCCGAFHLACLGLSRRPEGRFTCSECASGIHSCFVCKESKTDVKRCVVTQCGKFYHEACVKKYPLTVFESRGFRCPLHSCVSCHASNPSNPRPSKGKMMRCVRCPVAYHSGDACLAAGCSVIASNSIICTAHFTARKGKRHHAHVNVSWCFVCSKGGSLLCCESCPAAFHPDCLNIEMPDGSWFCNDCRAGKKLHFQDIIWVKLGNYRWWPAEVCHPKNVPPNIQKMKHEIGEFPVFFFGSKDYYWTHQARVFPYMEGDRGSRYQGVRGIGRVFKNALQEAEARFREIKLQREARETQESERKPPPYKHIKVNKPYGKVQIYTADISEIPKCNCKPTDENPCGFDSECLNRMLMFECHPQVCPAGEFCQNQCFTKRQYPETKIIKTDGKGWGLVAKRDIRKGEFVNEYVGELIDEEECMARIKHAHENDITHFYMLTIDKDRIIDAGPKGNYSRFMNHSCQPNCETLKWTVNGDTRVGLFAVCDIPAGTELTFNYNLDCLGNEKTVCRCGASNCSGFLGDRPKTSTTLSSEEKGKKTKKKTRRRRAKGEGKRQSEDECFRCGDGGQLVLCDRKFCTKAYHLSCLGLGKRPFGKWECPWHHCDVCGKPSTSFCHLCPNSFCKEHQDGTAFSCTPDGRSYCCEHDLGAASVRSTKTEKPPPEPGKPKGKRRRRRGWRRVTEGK

| SMILES | IC50 (NSD2 [1-1365]) | IC50 [1] | IC50 ([2]; KMS11-Par line, 72 hours) | IC50 (NSD2 [1-1365]; [3]) | IC50 [2, 4] |
| --- | --- | --- | --- | --- | --- |
| Nc1ncnc2c1ncn2Cc1cc(-c2ccc(F)c(F)c2)ncc1N1CCC[C@](N)([C@@H]2COCCO2)C1 [Example 289, 9-((5-((R)-3-amino-3-((R)-1,4-dioxan-2-yl)piperidin-1-yl)-2-(3,4-difluorophenyl)pyridin-4-yl)methyl)-9H-purin-6-amine] | 1 to 10 nM | 492 nM | 2670 nM |  |  |
| COc1ccc(-c2cc(Cn3cnc4c(N)ncnc43)c(N3CCC[C@](N)([C@H](O)C(F)F)C3)cn2)c(C(F)F)c1 [Example 163, (S)-1-((R)-3-amino-1-(4-((6-amino-9H-purin-9-yl)methyl)-6-(2-(difluoromethyl)-4-methoxyphenyl)pyridin-3-yl)piperidin-3-yl)-2,2-difluoroethan-1-ol] |  | 204 nM |  | 1 to 10 nM | 1850 nM |
| COc1cc(F)nc([C@@]2(N)CCCN(c3cnc(-c4ccc(F)c(F)c4)cc3Cn3cnc4c(N)ncnc43)C2)c1 [Example 235, (R)-9-((5-(3-amino-3-(6-fluoro-4-methoxypyridin-2-yl)piperidin-1-yl)-2-(3,4-difluorophenyl)pyridin-4-yl)methyl)-9H-purin-6-amine] | 1 to 10 nM | 705 nM | 970 nM |  |  |
| COc1ccc(-c2cc(Cn3cnc4c(N)ncnc43)c(N3CCC[C@](N)(c4ccc(F)c(Cl)n4)C3)cn2)cc1 [Example 216, (R)-9-((5-(3-amino-3-(6-chloro-5-fluoropyridin-2-yl)piperidin-1-yl)-2-(4-methoxyphenyl)pyridin-4-yl)methyl)-9H-purin-6-amine] | 10 to 1000 nM | 1880 nM | 2570 nM |  |  |
| COc1ccc(-c2cc(Cn3cnc4c(N)ncnc43)c(N3CCC[C@](N)([C@H](C)O)C3)cn2)cc1F [Example 92, (S)-1-((R)-3-amino-1-(4-((6-amino-9H-purin-9-yl)methyl)-6-(3-fluoro-4-methoxyphenyl)pyridin-3-yl)piperidin-3-yl)ethan-1-ol] |  | 2110 nM |  | 1 to 10 nM | 4890 nM |
| Nc1ncnc2c1ncn2Cc1cc(-c2ccc(F)cc2)ncc1N1CCC[C@](N)(c2ccc(F)c(Cl)n2)C1 [Example 221, (R)-9-((5-(3-amino-3-(6-chloro-5-fluoropyridin-2-yl)piperidin-1-yl)-2-(4-fluorophenyl)pyridin-4-yl)methyl)-9H-purin-6-amine] | 1 to 10 nM | 269 nM | 1290 nM |  |  |
| COc1ccc(-c2cc(Cn3cnc4c(N)ncnc43)c(N3CCC[C@](N)([C@H](O)C(F)F)C3)cn2)c(Cl)c1 [Example 168, (S)-1-((R)-3-amino-1-(4-((6-amino-9H-purin-9-yl)methyl)-6-(2-chloro-4-methoxyphenyl)pyridin-3-yl)piperidin-3-yl)-2,2-difluoroethan-1-ol] | 10 to 1000 nM | 997 nM | 4780 nM |  |  |
| Nc1ncnc2c1ncn2Cc1cc(-c2ccc(C(F)(F)F)cc2F)ncc1N1CCC[C@](N)([C@@H](O)C(F)F)C1 [Example 141, (R)-1-((R)-3-amino-1-(4-((6-amino-9H-purin-9-yl)methyl)-6-(2-fluoro-4-(trifluoromethyl)phenyl)pyridin-3-yl)piperidin-3-yl)-2,2-difluoroethan-1-ol] |  | 1150 nM |  | 10 to 1000 nM | 7700 nM |
| Nc1ncnc2c1ncn2Cc1cc(-c2ccc(F)c(F)c2)ncc1N1CCC[C@](N)(c2cccc(F)n2)C1 [Example 201, (R)-9-((5-(3-amino-3-(6-fluoropyridin-2-yl)piperidin-1-yl)-2-(3,4-difluorophenyl)pyridin-4-yl)methyl)-9H-purin-6-amine] | 1 to 10 nM | 123 nM | 286 nM |  |  |
| Nc1ncnc2c1ncn2Cc1cc(-c2ccc(F)c(F)c2F)ncc1N1CCC[C@](N)([C@@H](O)C(F)F)C1 [Example 172, (R)-1-((R)-3-amino-1-(4-((6-amino-9H-purin-9-yl)methyl)-6-(2,3,4-trifluorophenyl)pyridin-3-yl)piperidin-3-yl)-2,2-difluoroethan-1-ol] | 10 to 1000 nM | 1200 nM | 8930 nM |  |  |
| COc1ccc(-c2cc(Cn3cnc4c(N)ncnc43)c(N3CCC[C@](N)(c4cccc(Cl)n4)C3)cn2)nc1F [Example 224, (R)-9-((5-(3-amino-3-(6-chloropyridin-2-yl)piperidin-1-yl)-6′-fluoro-5′-methoxy-[2,2′-bipyridin]-4-yl)methyl)-9H-purin-6-amine] | 1 to 10 nM | 348 nM | 1710 nM |  |  |
| Nc1ncnc2c1ncn2Cc1cc(-c2cc(F)c(F)cc2C(F)F)ncc1N1CCC[C@](N)([C@H](O)C(F)F)C1 [Example 171, (S)-1-((R)-3-amino-1-(4-((6-amino-9H-purin-9-yl)methyl)-6-(2-(difluoromethyl)-4,5-difluorophenyl)pyridin-3-yl)piperidin-3-yl)-2,2-difluoroethan-1-ol] | 10 to 1000 nM | 886 nM | 5520 nM |  |  |
| Cn1ncc2cc(-c3cc(Cn4cnc5c(N)ncnc54)c(N4CCC[C@](N)([C@@H](O)C(F)F)C4)cn3)c(F)cc21 [Example 123, (R)-1-((R)-3-amino-1-(4-((6-amino-9H-purin-9-yl)methyl)-6-(6-fluoro-1-methyl-1H-indazol-5-yl)pyridin-3-yl)piperidin-3-yl)-2,2-difluoroethan-1-ol] |  | 1490 nM |  | 1 to 10 nM | 7850 nM |
| Nc1ncnc2c1ncn2Cc1cc(-c2ccc(OC(F)F)c(F)c2)ncc1N1CCC[C@](N)([C@H](O)C(F)F)C1 [Example 116, (S)-1-((R)-3-amino-1-(4-((6-amino-9H-purin-9-yl)methyl)-6-(4-(difluoromethoxy)-3-fluorophenyl)pyridin-3-yl)piperidin-3-yl)-2,2-difluoroethan-1-ol] |  | 168 nM |  | 1 to 10 nM | 1350 nM |
| COc1ccc(-c2cc(Cn3cnc4c(N)ncnc43)c(N3CCC[C@](N)(C(O)C(F)F)C3)cn2)c(C(F)(F)F)c1 (stereo in doubt) [Example 167, (R)-1-((R)-3-amino-1-(4-((6-amino-9H-purin-9-yl)methyl)-6-(4-methoxy-2-(trifluoromethyl)phenyl)pyridin-3-yl)piperidin-3-yl)-2,2-difluoroethan-1-ol] | 10 to 1000 nM | 559 nM | 6120 nM |  |  |
| Nc1ncnc2c1ncn2Cc1cc(-c2ccc(F)c(Cl)n2)ncc1N1CCC[C@](N)([C@H](O)C(F)F)C1 [Example 175, (S)-1-((R)-3-amino-1-(4-((6-amino-9H-purin-9-yl)methyl)-6′-chloro-g-fluoro-[2,2′-bipyridin]-5-yl)piperidin-3-yl)-2,2-difluoroethan-1-ol] | 10 to 1000 nM | 534 nM | 11300 nM |  |  |
| Nc1ncnc2c1ncn2Cc1cc(-c2ccc(F)cc2)ncc1N1CCC[C@](N)(c2cccc(C3CC3)n2)C1 [Example 182, (R)-9-((5-(3-amino-3-(6-cyclopropylpyridin-2-yl)piperidin-1-yl)-2-(4-fluorophenyl)pyridin-4-yl)methyl)-9H-purin-6-amine] | 1 to 10 nM | 97.5 nM | 142 nM |  |  |
| Nc1ncnc2c1ncn2Cc1cc(-c2ccc(F)c(F)c2)ncc1N1CCCC(N)(C(=O)C2CCC2)C1 (stereo not drawn) [Example 105, (3-amino-1-(4-((6-amino-9H-purin-9-yl)methyl)-6-(3,4-difluorophenyl)pyridin-3-yl)piperidin-3-yl)(cyclobutyl)methanone] |  | 67 nM |  | 10 to 1000 nM | 140 nM |

— patent publication US11420970B1 (NOVARTIS AG, priority 2019, dated 2022)
